These results are taken from patent publication US20080119517A1, “COMPOSITIONS AND METHODS FOR PROTECTING AGAINST MITOCHONDRIA COMPONENT-MEDIATED PATHOLOGY” (Cornell Research Foundation, Inc., priority 2003, published 2008).

The subject of series [1] is rabbit models of cerebral and spinal ischemia. The following applies: in vivo; cited from earlier work.
Series [2] deals with isolated liver mitochondria. Kind of series: Four-parameter mitochondrial physiology (oxygen, Ca2+, membrane potential, swelling). It counts as biochemical, rat. The following applies: 10 μM; for protection against PT induction (swelling, A660): high Ca2+ dose. How it is done:
Mitochondrial physiological parameters were assessed to determine whether these heterocyclics and related compounds interfered direly with mitochondrial functions, and whether such interference might underlie their protection (e.g., respiratory inhibitors can score as protective in some assays, as can uncouplers, but neither would be optimal as a therapeutic candidate). […]; methiothepin [serotonin modulator]; clomipramine [antidepressant]).
FIG. 5 illustrates that the heterocyclic compounds delay PT induction in isolated liver mitochondria without impairing mitochondrial physiology. FIG. 5a depicts oxygen consumption measured by Clark electrode. Oxygen concentration in buffer decreases as the signal decreases. FIG. 5b depicts Ca^2+ transport measured by Ca^2+— selective electrode. The Ca^2+ in buffer increases as the signal increases. FIG. 5c depicts Δψ measured using a TPP^+ electrode. The Δψ parameter decreases as the signal increases. TPP^+ uptake determined by comparison with standard curve after correction for shift in the electrode signal is induced by the compounds examined. […] Changes in Δψ consistent with the slight increases in respiration (equivalent to approximately 5% of maximally uncoupled mitochondria) observed with some drags is likely below the limit of detection. FIG. 5d depicts mitochondrial swelling (absorbance) monitored by a light emitting diode BET) at A660. Mitochondrial are more swollen when signal decreases. Assay in 300 mM sucrose, 2.5 mM K—PO4, 3 mM HERPES, pH 7.2 and 5 mM succinate. Experiments were stopped shortly after oxygen was consumed.
Liver mitochondrial respiration was measured in 250 mM sucrose, 3 mM MgCl2, 0.5 mM EDTA, 10 mM KH2PO4 (pH 7.2). The buffer was equilibrated at 28° C. for not less than an hour before taking measurements. Respiration was initiated by adding mitochondria isolate to the oxygraph cell (0.9±0.2 mg/mL protein). State 3 respiration was initiated with ADP (˜200 μM). The substrates were added at either 5 or 10 mM for α-ketoglutarate and glutamate/malate and 10-20 mM for succinate. Respiration rates were determined using a PC-controlled Strathkelvin Instruments Limited 928 6-Channel Dissolved Oxygen System with two standard Clark-type electrodes fitted to two standard Gilson 1.7-1.8 mL oxygraph cells. Traces were analyzed using the Strathkelvin data acquisition and analysis program included with the instrument. The lines of best fit were calculated and plotted to polarographic traces using the built-in software function based on least squares regression analysis. State 3 respiration rates were calculated when stabilized, i.e., 1.0-1.5 minutes after initiating the state. Respiration before and after ADP consumption was used to calculated RCR. All experiments were carried out in triplicate. All substrates used in mitochondrial respiration experiments were dissolved in respiration buffer (see below) and brought to neutral pH.
The experimental system employed comprises a respiration chamber that can be sealed and placed in a light tight outer chamber. Electrodes and sensors are positioned in a single plane around the outside of the chamber—this system enables simultaneous measurement of oxygen uptake, membrane potential, calcium, and light scattering (absorbance). Oxygen uptake, membrane potential, and Cab are measured using Clark, TPP^+, and Ca^2+-sensitive electrodes, respectively see, Zhu, S., et al., Nature 417:74-78, 2002. A660 is measured using a diode. The chamber is water-jacketed to allow thermostabilization (15-to-1 water volume to sample volume −1 mL, closed chamber). Samples were constantly stirred using a top-mounted magnetic stir bar. Signals measured from electrodes and sensors are recorded on a computer through a commercially available L-154 card. Software has been written to enable data collection and analysis. All experiments were carried out in triplicate. Plots shown in the paper are representative.

The test system of series [3] is gerbil ischemia-reperfusion model. The note with it: cited from earlier work.
A further series concerns the target calmodulin (Homo sapiens, UniProt P0DP23). The experiment in a line: Calmodulin-dependent calcineurin activity (pNPP hydrolysis). The following applies: 300 μM compound.
The test system of series [4] is PT induction in isolated rat liver mitochondria. The experiment in a line: High throughput spectrophotometric PT-induced swelling assay following Ca2+ challenge. The class given is biochemical. The note with it: for protection against PT induction, score in the initial screen: 10 μM, blind library screen. The text has this: This library was primarily composed of clinically-approved drugs that could readily be moved to late stage pre-clinical trials and then into accelerated clinical trials. […] The remainder of the library largely consisted of some analogues of these drugs, other known bioactive agents (including natural products, toxins and known inhibitors). Screening of this library was blind and was designed to identify compounds that acted independently of antioxidant activity or ability to chelate Ca^2+ (FIG. 2).
Assays were performed on mitochondria energized with succinate, glutamate/malate, or α-ketoglutarate. […] Subsequent assays (see, Table 1) repeated this approach using inducers optimized to overcome protection mediated by chelators (high C^2+ or antioxidants (high tert-butyl hydroperoxide), based on the rationale that it was unlikely to identify novel drug activities in these categories.
Each of these compounds was re-assayed against three models of PT induction and ranked according to the resistance it conferred to induction.
Bars are coded by each drug's therapeutic class. […] Compounds were assayed in triplicate at 7 concentrations (30, 10, 3, 1, 0.3, 0.1, and 0.03 μM) against three different challenges (50 μM Ca^2+/2.5 mM K—PO4, 25 μM Ca^2+/5 mM K—PO4, 25 μM Ca^2+/2.5 mM K—PO4/100 μM tert-butyl hydroperoxide). […] To address potential inaccuracies introduced by calculation of the area under the curve, protection was also assayed as percent absorbance remaining when absorbance of an unprotected sample had dropped and stabilized. […] “N” for each drug is 7 to 9. Horizontal lines show mean and mean plus one standard deviation.

For series [5], the system named is primary cerebrocortical neurons. Kind of series: Oxygen-glucose deprivation (OGD) of cultured primary cerebrocortical neurons. The class given is cell-based, mouse. How it is done: Heterocyclic-mediated protection was next examined in two models of stroke: (i) oxygen-glucose deprivation (OGD) of cultured primary cerebrocortical neurons, and; (ii) in the mouse, middle cerebral artery occlusion (MCAO)/reperfusion.
Neurotoxicity studies were conducted as previously described. […] Cerebral cortex of mouse embryos at day 15 (E15) were freed from meninges and separated from olfactory bulb and hippocampus.
OGD of primary cerebrocortical neurons is a widely used cell culture model of stroke-related pathology. […] Caspase-3 activation plays a key role in hypoxia/ischemia-mediated injury. To gam insight into the mechanism of promethazine-mediated neuroprotection, it was evaluated whether this compound could inhibit OGD-mediated caspase-3 activation.

Series [6] concerns mouse middle cerebral artery occlusion (MCAO). The note with it: in vivo.
The subject of the next series is apoptosis / PT induction. The following applies: suggested; by reducing mitochondrial oxidative stress; cited from earlier work.
The next series has as its system phospholipase A2 (PLA2). The note with it: cited from earlier work.
The subject of series [7] is ischemia-reperfusion injury in multiple models. The note with it: cited from earlier work.
In the next series the test system is humans. The note with it: human, in vivo; cited from earlier work.

Molecules are shown by their SMILES. “Also recorded” adds a separate entry of the source.

Turning to `CN(C)CCCN1c2ccccc2Sc2ccc(Cl)cc21` [Chlorpromazine], the functional impairment entry in series [1] is on record as “reduced”.
Consider `CN(C)CCCN1c2ccccc2CCc2ccc(Cl)cc21` [Clomipramine], for which, in [2], the “Ca2+ transport” value is on record as “without affecting”; the “initial oxygen consumption prior to PT induction” value (“initial oxygen consumption prior” for short) is “without affecting”; the “resting or recovered Δψ” value is on record as “without affecting”; the “protection against PT induction (swelling, A660)” value (“protection … (swelling, A660)” for short) is given as “protected”. The “hippocampal CA1 neuronal damage” value in series [3] (20 mg/kg) is given as “protect”.
With `OCCN1CCN(CCCN2c3ccccc3Sc3ccc(C(F)(F)F)cc32)CC1` [Flufenazine], in series [2], the “Ca2+ transport” value is “without affecting”; the “initial oxygen consumption prior” value is “without affecting”; the “resting or recovered Δψ” value is “without affecting”; the “protection … (swelling, A660)” value was “protected”.
Consider `CCOC(=O)N1CCC(=C2c3ccc(Cl)cc3CCc3cccnc32)CC1` [Loratadine], for which the “calmodulin activity (ratio to untreated plate controls)” value on calmodulin was “apparent calmodulin activation”.
With `CSc1ccc2c(c1)C(N1CCN(C)CC1)Cc1ccccc1S2` (stereo not drawn) [Methiothepin], the “relative potency as PT inhibitor” value in [4] (ranking among the heterocyclics) is “approximately equivalent to promethazine in potency”. In addition, in series [2], the “Ca2+ transport” value is listed as “without affecting”; the “initial oxygen consumption prior” value is recorded as “without affecting”; the “resting or recovered Δψ” value was “without affecting”; the “protection … (swelling, A660)” value is reported as “protected”.
For `CN1CCN2c3ccccc3Cc3ccccc3C2C1` (stereo not drawn) [Mianserin], the “protection in the gerbil ischemia model” value in series [3] (5-20 mg/kg) is listed as “protects”.
For the molecule `CNCCC=C1c2ccccc2CCc2ccccc21` [Nortriptyline], in [5], the “OGD-mediated caspase-3 activation” value is given as “inhibits; also recorded: attenuated”. For the same molecule, the “OGD mediated cytochrome C release” value in series [5] (Western blot) is “Inhibiting; also recorded: minimized”. In [5] (nortriptyline), the “OGD cell death as measured by LDH release” value is recorded as “preventing cell death; also recorded: reduction”. Also, in [6], the “infarct (stroke) volume” value is “significant reduction”, the “infarct area in coronal slices compared to the controls” value was “decreases”, the “neurological examination following cerebral ischemia” value was “improves” and the “neuroprotection following MCAO” value is recorded as “mediates neuroprotection”.
Regarding `CSc1ccc2c(c1)N(CCC1CCCCN1C)c1ccccc1S2` (stereo not drawn) [Thioridazine], in the series with apoptosis / PT induction, the PT induction entry is “delay” and the apoptosis result was “inhibit”.
For `CN1CCN(CCCN2c3ccccc3Sc3ccc(C(F)(F)F)cc32)CC1` [Trifluoperazine], the “protection against PT induction, score in the initial screen” value in series [4] is “moderate”. Besides, in [1], the functional impairment result is reported as “reduced”. Also, the “phospholipase A2 (PLA2) inhibition” value with phospholipase A2 (PLA2) is reported as “can inhibit”. For the same molecule, the “protection against ischemia-reperfusion injury” value in [7] is “protective”. In the series with humans, the tolerability in humans result was “limited utility for long-term use in humans because of its toxicity”.
As to `CN1CCN(CC(=O)N2c3ccccc3C(=O)Nc3cccnc32)CC1` [pirenzepine], at calmodulin, the “calmodulin activity (ratio to untreated plate controls)” value was “apparent calmodulin activation”.
As for `CC/C(=C(\c1ccccc1)c1ccc(OCCN(C)C)cc1)c1ccccc1` [tamoxifen], in [4], the “protection against PT induction, score in the initial screen” value is “moderate”.
